{"source": "patent US20090325858A1", "about": "“Reduction of Zinc-Induced Neurotoxic Injury By Blockade of Nitric Oxide Synthesis” (ANDRO DIAGNOSTICS, INC., priority 2003, published 2009)", "key": {"[1]": {"molecular_target": "Zn^2+-bound CA (bovine CA I)", "conditions": "cited from earlier work"}, "[2]": {"system": "zinc-positive neurons in hilus and hippocampal cortex (CA3)", "assay": "Traumatic brain injury plus hypoperfusion, number of zinc-stained neurons", "assay_type": "in vivo, rat", "conditions": "for sparing in the number of zinc-injured (zinc-positive) neurons: trauma plus hypoperfusion", "source_text": "Male Sprague-Dawley rats weighing 350-400 g were anesthetized with isoflurane in an anesthetic chamber, intubated, and mechanically ventilated with 1.5-2.0% isoflurane in O2:room air (70:30) using a volume ventilator (EDCO Scientific, Chapel Hill, N.C.). Polyethylene cannulae were placed in both femoral arteries and one femoral vein for arterial pressure monitoring and hemorrhage and for drug infusion, respectively. Rectal and temporalis muscle temperatures were monitored using telethermometers (Yellow Springs Instruments, Yellow Springs, Ohio). Rectal temperature was maintained using a thermostatically controlled water blanket (Gaymar, Orchard Park, N.Y.).\nRats were prepared for parasagittal fluid-percussion traumatic brain injury (TBI) and for laser Doppler flowometry as described below. Intracranial pressure (ICP) was monitored continuously using a Camino probe (V420, Camino Laboratories, San Diego, Calif.) placed in a lateral ventricle through a small craniotomy placed posterior and lateral to the fluid percussion injury site. Isoflurane was lowered to 1.5%; the rats were connected to the trauma device, and subjected to moderate or severe traumatic brain injury.\nAfter traumatic brain injury (or sham-TBI) blood was withdrawn from a catheter in a femoral artery to reduce MAP to 60 mmHg. Mean arterial pressure was maintained at 60 mmHg for 45 minutes during which time cerebral blood flow and ICP were measured. […] Post-resuscitation measurements were then performed. An arterial blood sample was withdrawn with each measurement series to determine PaCO2, PaO2, pH and hemoglobin concentration or hematocrit.\nFluid-percussion traumatic brain injury is a clinically relevant model that has been used in many studies of traumatic brain injury in cats, rats, and pigs (79, 82). The trauma device consists of a Plexiglas cylinder 60 cm long and 4.5 cm in diameter. One end of the device is connected to a hollow metal cylinder housing a pressure transducer (Statham PA856-100) and the other end is closed by a Plexiglas piston mounted on O-rings.\nThe piston is struck by a 4.8-kg steel pendulum dropped from a variable height, which determines the intensity of injury. The pressure pulse is recorded on a storage oscilloscope triggered photoelectrically by the descent of the pendulum. Sham-injured rats were connected to the trauma device but were not injured.\nThe effects of a moderate (2.0 atm) or severe (3.0 atm) levels of injury were studied. Moderate injury (2.1 atm) is associated with 10% mortality, reductions in EEG amplitude for 10 to 15 min, brief (<5 min) suppression of reflexes (corneal, pinna, paw flexion to pinch, righting), and return of spontaneous locomotion within 10 min. […]"}, "[3]": {"system": "zinc-positive neurons", "assay": "Pilocarpine-induced seizures, number of zinc-positive neurons", "assay_type": "in vivo"}, "[4]": {"system": "hippocampal slice", "assay": "Zn2+ release from hippocampal slice in oxygen-glucose deprivation (OGD) and reperfusion, Newport Green", "assay_type": "cell-based, rat", "conditions": "slices pretreated, 1 mM", "source_text": "In the in vitro model, the ischemia was translated to the hippocampal slice using the established oxygen-glucose deprivation (OGD) paradigm. Zinc in the extracellular fluids of the slice was monitored using membrane impermeable Newport Green as a sensor for Zn^2+ in the extracellular fluid as described herein. The release results paralleled the results obtained in vivo from the rabbits. Zinc was released into the extracellular fluid at the onset of OGD, then even more release was observed during reperfusion (FIG. 8)."}, "[5]": {"system": "hippocampal brain slice", "assay": "Zn2+ release into extracellular fluid of acute hippocampal brain slices, EnZin fluorescence", "assay_type": "cell-based, rat", "conditions": "immediately after adding to hippocampal slice bath", "description": "Experiments were performed on transverse hippocampal splices taken from 5 to 6 week-old male rats. In all, 41 hippocampal slices and 10 additional hippocampi taken directly from intact animals (“freshly frozen” see below) were studied quantitatively. After halothane (3.5%) inhalation in the anesthetic box, the rats were perfused with 4° C. artificial cerebrospinal fluid (ACSF) (NaCl was substituted by 190 mM sucrose) intracardially for 1 minute (76-77).\nAfter perfusion, the rats were decapitated and the hippocampi were dissected out and placed in cold (4° C.) artificial cerebrospinal fluid. Transverse slice (400 μm) were cut with a vibratome (Campden Vibraslice, model # 752) and placed on a nylon mesh in an incubation chamber. […] The slices were kept at 20° C. in oxygenated (95% O2, 5% CO2) artificial cerebrospinal fluid for 30 minute before stimulation. The gas mixture was also bubbled through the water bath in the chamber and vented over the chamber for >30 minute before the experiment started. The standard artificial cerebrospinal fluid comprised 130 mM NaCl, 3.5 mM KCl, 1.25 mM NaH2PO4, 2 mM MgSO4, 2 mM CaCl2, 20 mM NaHCO3, 2 mM ascorbic acid and 10 mM D-glucose.\nFor measuring zinc release with EnZin, (apoCA+ABDN), the slices were epi-illuminated with 420 nm light and imaged through both 530 nm and 700 nm band pass filters. […] The ABDN is fluorescent at 600 nm when free, but fluoresces at 560 nm when bound to the Zn+CA (“holo” CA). Thus, the CA is the zinc detector, and the ABDN is the ratiometric fluorescent reporter. A variety of CA with different zinc affinities for different zinc measurement ranges can be generated (78).\nThe ratio of the 520/700 nm images were then calculated (Optimus), giving a ratiometric image of zinc concentration. In this fluorescence system, the affinity of the EnZin is so high (Kd=[…]) that it can be treated as infinite. With a stoichiometric excess of EnZin, the percent occupancy of the EnZin by Zn^2+ can be used as the modulator of fluorescence intensity. […]"}, "[6]": {"system": "vesicular zinc in axonal boutons of the hippocampal formation", "conditions": "for vesicular zinc staining of boutons (qualitative): TSQ staining, 2 hr after infusion, hippocampal formation", "experimental": "Adult Sprague-Dawley rats (male, 300-350 g) were anesthetized with halothane, and mounted in a stereotaxic instrument where a bone defect was opened after reflection of the scalp.\nFor measuring the normal concentration of vesicular zinc in the tissue after treatment with various nitric oxide generators, frozen tissue sections were cut in a closed-top cryostat at 30 μm (−14° C.). For whole brains, starting at 3.6 mm caudal to bregma, every 3rd section was saved until 5-10 sections were obtained. For tissue slices studied in vitro, every section was saved (typically 6-9 per brain slice). After cutting, the sections were thawed onto glass slides, dried, then stained with TSQ (80-82).\nThe sections were stained with TSQ, ((N-(6-methoxy-8-quinolyl)-para-1-toluenesulfonamide, Molecular Probes), as described previously (80) for fluorescence visualization of Zn^2+. Briefly, the frozen, unfixed sections were immersed in a solution of TSQ (4.5 μM) in 140 mM sodium barbital and 140 mM sodium acetate buffer (pH 10-10.5) for 60 seconds, rinsed for 60 seconds in normal saline (NaCl, 0.9%), then viewed and imaged in the microscope with no coverslip while still damp. A SPOT2 cooled CCD camera was used to capture the fluorescence images (10×n.a. 0.65) at 12 bit resolution for subsequent quantitation of zinc-TSQ fluorescence intensity. Control and treated tissues were always digitized in the same sitting to guard against sensitivity changes in the system.\nRats were anesthetized, a microsyringe and needle were lowered into the hippocampal formation or neocerebellar cortex by stereotaxis and then nitric oxide generators were infused into the tissue. After 120 minutes of survival, the rats were sacrificed and the brains were cut and stained to show the location and concentration of the weakly bound Zn^2+ that is normally sequestered in the presynaptic boutons, i.e., vesicular zinc. Zinc localization and quantification were determined by TSQ fluorescence staining."}}, "note": "“Also recorded” adds a separate entry of the source."}
{"compound": "NS(=O)(=O)c1ccc(NCCO)c2nonc12", "note": "[ABDN]", "values": [{"measurement": "Kd", "setting": "[1]", "result": 45, "unit": "µM"}]}
{"compound": "COC(=O)[C@@H](N)CCCNC(=N)N[N+](=O)[O-]", "note": "[L-NAME, N(6)-nitro-L-arginine methyl ester]", "values": [{"measurement": "number of zinc-stained cells (qualitative)", "setting": "[2]; TBI plus hypoperfusion, prior administration", "result": "substantial reduction; also recorded: greatly reduces"}, {"measurement": "number of zinc-positive neurons after excitotoxic insult (qualitative)", "setting": "[2]; blunt-trauma", "result": "dramatically reduces"}, {"measurement": "sparing in the number of zinc-injured (zinc-positive) neurons", "setting": "[2]; hilus", "result": 50, "unit": "%"}, {"measurement": "sparing in the number of zinc-injured (zinc-positive) neurons", "setting": "[2]; hippocampal cortex (CA3)", "result": 50, "unit": "%"}, {"measurement": "number of zinc-positive neurons after excitotoxic insult (qualitative)", "setting": "[3]", "result": "dramatically reduces"}, {"measurement": "Zn^2+ release into extracellular fluid after OGD and reperfusion", "setting": "[4]", "result": "almost completely blocked"}]}
{"compound": "CC(=O)N[C@H](C(=O)O)C(C)(C)SN=O", "note": "[SNAP, S-nitroso-N-acetyl-L-penicillamine]", "values": [{"measurement": "Zn^2+ fluorescence in the slice bath / extracellular fluid", "setting": "[5]", "result": "rapid (within seconds) increase; also recorded: raised"}]}
{"compound": "NCCCNCCCCN(CCCN)/[N+]([O-])=N/O", "note": "[Spermine NO, Spermine-NONOate]", "values": [{"measurement": "vesicular zinc staining of boutons (qualitative)", "setting": "[6]", "result": "depletes zinc"}, {"measurement": "vesicular zinc in the hilus reduced compared to control", "setting": "[6]; quantitative microfluorimetric analysis, hilus, in vivo infusion", "result": "about 60%"}, {"measurement": "Zn^2+ fluorescence in the slice bath / extracellular fluid", "setting": "[5]", "result": "rapid (within seconds) increase"}]}
{"compound": "NCCCNCCCCNCCCN", "note": "[Spermine]", "values": [{"measurement": "vesicular zinc staining of boutons (qualitative)", "setting": "[6]", "result": "unaffected"}, {"measurement": "Zn^2+ fluorescence in the slice bath / extracellular fluid", "setting": "[5]", "result": "no effect"}]}
